Measured values from patent US20070265164A1, “Active Substances for Increasing Pathogenic Defense in Plants and Methods for the Detection Thereof” (Bayer Cropscience GmbH, priority 2004, published 2007).

Legend:
[1] = tested on: Contig3097_at, Allene oxide synthase; test: GEP, barley DNA chip, probe set 1.3; format: in vivo; design: fold induction: dose or concentration left out as unconfirmed; conditions: for fold induction / fold induction at 150 g/ha: Hordeum vulgare, topical, read-out: Expression value, 1.3 Contig3097_at; for fold induction: rates of Table 1 (S7 500); for fold induction at 150 g/ha: 6 h
Description: (§1) Barley plants (cv. Baronesse) were grown in compost-filled pots (diameter: 10 cm) for 10 days in a controlled-environment cabinet under defined light, humidity and temperature conditions (white light, 70% atmospheric humidity, 24° C.). At the time of spray application, the seedlings were approximately 15 cm in size. The test substances selected in this example were molecules which differ markedly in their structure and which have a well documented pronounced safener effect, and other molecules which are known from the literature to have an effect on plant stress and pathogen tolerance (Table 1). The substances were prepared as stock solutions in DMSO (dimethyl sulfoxide) at c=10 mg/ml). This was used for preparing dilutions in water supplemented with 0.2% Agrotin (comprises polyvinyl alcohol, silicones, polysaccharides and pH regulators, manufacturer: Bayer CropScience AG, Monheim, Germany), as wetter, to give the application rates shown in the table. The amount of liquid for the spray application was 800 μl per pot, corresponding to 800 l/ha. For each 800 μl of spray mixture, 16 μl of EC premix: diacetone alcohol=1:6 were additionally added as formulation auxiliaries. The substances listed in Table 1 were applied to the leaves by means of a pneumatic spray pistol. Each substance was sprayed as 2 dosages, and all experiments were carried out as replicates (2 pots per substance). Sprayings with blank formulation without active ingredient were carried out as controls. After 6 hours, the leaves were harvested, frozen in liquid nitrogen and stored at −80° C. until further use. The labeled RNA probes for the DNA chip hybridization were prepared as described in the protocols (Expression Analysis, Technical Manual) from Affymetrix (Affymetrix Inc., 3380 Central Expressway, Santa Clara, Calif., USA). First, total RNA was isolated from in each case 500 mg of the harvested leaves. In each case 10 μg of total RNA was used for the first-strand and second-strand cDNA synthesis. The cDNA was amplified with T7 polymerase and simultaneously labeled with biotin-UTP. In each case, 20 μg of this biotinylated cDNA was employed for the hybridization of the barley genome array (Gene Chip Barleyl, order No.: 511012) from Affymetrix. This DNA microarray comprises DNA sequences of 22 840 genes which are composed of a total of 400 000 EST sequences. Thereafter, the DNA microarrays were washed in the Affymetrix Fluidics Station, stained with streptavidin/phycoerythrin (Molecular Probes, P/N S-866) and scanned with the matching Agilent Laser Scanner (Agilent Gene Array Scanner). The fluorescent data obtained were analyzed with the software Microarray Suite 5 from Affymetrix. After the quality had been checked, all DNA chip analyses were stored in a database. To determine the relative expression values for genes (induction factors, repression factors), test and control chips were compared with each other, and the scoring function set by the Affymetrix software was used as the basis. The 2 biological replications of one experiment were compared in each case with 2 control chips (blank formulation), and the 4 expression values obtained for each gene were used for calculating the median. These medians are shown in the results tables as induction factors. Similarity comparisons of expression profiles from different experiments and cluster analyses were carried out using the software GeneMaths 1.5 from Applied Maths (Applied Maths, Keistraat 120, 9830 Sint-Martens-Latem, Belgium).
(§2) Gene groups from specific metabolic pathways and signal transduction chains were put together by key word search in the annotations, of the genes, which were also provided by Affymetrix, and by Blast analyses (homology comparisons) of the DNA target sequences, i.e. of the positive sequence (identified on the basis of a modified expression profile) identified on the DNA chip, using gene sequences from other organisms, preferably plant organisms, with characterized functions. […]

[2] = tested on: Contig1736_at, Lipoxygenase 1 (EC 1.13.11.12); test: GEP, barley DNA chip, probe set 1.10; format: in vivo; design: fold induction: dose or concentration left out as unconfirmed; conditions: for fold induction / fold induction at 150 g/ha: Hordeum vulgare, read-out: Expression value, 1.10 Contig1736_at; for fold induction: rates of Table 1 (S7 500); for fold induction at 150 g/ha: 6 h
Description: as §1, §2

[3] = tested on: Contig10030_at, Putative lipase homolog; test: GEP, barley DNA chip, probe set 1.13; format: in vivo; design: fold induction: dose or concentration left out as unconfirmed; conditions: for fold induction / fold induction at 150 g/ha: Hordeum vulgare, topical, read-out: Expression value, 1.13 Contig10030_at; for fold induction: rates of Table 1 (S7 500); for fold induction at 150 g/ha: 6 h
Description: as §1, §2

[4] = tested on: Contig2305_at, Methyljasmonate inducible lipoxygenase; test: GEP, barley DNA chip, probe set 1.14; format: in vivo; design: fold induction: dose or concentration left out as unconfirmed; conditions: for fold induction / fold induction at 150 g/ha: Hordeum vulgare, topical, read-out: Expression value, 1.14 Contig2305_at; for fold induction: rates of Table 1 (S7 500); for fold induction at 150 g/ha: 6 h
Description: as §1, §2

[5] = tested on: Contig88_x_at, Putative proteinase inhibitor; test: GEP, barley DNA chip, probe set 2.3; format: in vivo; design: fold induction: dose or concentration left out as unconfirmed; conditions: for fold induction / fold induction at 150 g/ha: Hordeum vulgare, topical, read-out: Expression value, 2.3 Contig88_x_at; for fold induction: rates of Table 1 (S7 500); for fold induction at 150 g/ha: 6 h
Description: as §1, §2

[6] = tested on: Contig2992_s_at, Chitinase (EC 3.2.1.14); test: GEP, barley DNA chip, probe set 5.2; format: in vivo; design: fold induction: dose or concentration left out as unconfirmed; conditions: for fold induction / fold induction at 150 g/ha: Hordeum vulgare, topical, read-out: Expression value, 5.2 Contig2992_s_at; for fold induction: rates of Table 1 (S7 500); for fold induction at 150 g/ha: 6 h
Description: as §1, §2

[7] = tested on: Oxophytodienoate (OPDA); test: Oxophytodienoate (OPDA) concentration in leaves of treated plants, GC-MS/MS; format: in vivo, barley
Description: Barley plants (cv. Baronesse) were grown under the conditions described in Example 1 and treated by spray application with safener isoxadifen-ethyl (S 3). The application rates were chosen as follows:
(1) 30 [g a.i./ha]; (2) 150 [g a.i./ha]; (3) blank formulation (no active ingredient)
[…] All samples were designed in each case as replications of 3 pots.
The octadecanoates and jasmonates were processed from the leaves following a procedure described in the literature (Müller A, Düchting P and Weiler E W (2002)), A multiplex GC-MS/MS technique for the sensitive and quantitative single-run analysis of acidic phytohormones and related compounds, and its application to Arabidopsis thaliana. Planta, 216, 44-56).
300 mg of plant material were extracted for each measuring point.
50 pmol [^13C]2-JA and 100 pmol [17,17,17,18,18-^2H]-cis-OPDA were applied as internal standards. The extracts were purified via aminopropyl anion-exchange chromatography in miniature solid-phase exchanger columns which had been prepared in-house.
The results are shown in Tables 3a to 3d, the values shown being in each case means of the 3 applications.

[8] = tested on: Jasmonate (JA); test: Jasmonate (JA) concentration in leaves of treated plants, GC-MS/MS; format: in vivo, barley; conditions: 0 hours
[9] = barley leaves 6 h after spray application, rates of Table 1 (150 g a.i./ha, S7 500), median induction factor vs control
[10] = barley leaves 6 h after spray application, median induction factor vs control

Compound: O=C(NO)c1ccccc1O [S7, Salicyl hydroxamate]
- Expression value, 1.3 Contig3097_at [1, 9]: 1.00 x times
- Expression value, 1.10 Contig1736_at [2, 9]: 1.00 x times
- Expression value, 1.13 Contig10030_at [3, 9]: 1.00 x times
- Expression value, 1.14 Contig2305_at [4, 9]: 41.07 x times
- Expression value, 2.3 Contig88_x_at [5, 9]: 21.86 x times
- Expression value, 5.2 Contig2992_s_at [6, 9]: 1.00 x times

Compound: O=C(O)c1cc(Cl)cc(Cl)c1O [S10]
- fold induction [1, 10]: 1
- fold induction [2, 10]: 1
- fold induction [3, 10]: 1
- fold induction [4, 10]: 18.1
- fold induction [5, 10]: 4.41
- fold induction [6, 10]: 1

Compound: CSC(=O)c1cccc2nnsc12 [S8, Acibenzolar-S-methyl]
- fold induction [1, 10]: 2.11
- fold induction [2, 10]: 1
- fold induction [3, 10]: 1
- fold induction [4, 10]: 81.6
- fold induction [5, 10]: 22.9
- fold induction [6, 10]: 1

Compound: CCOC(=O)C(Oc1ccc(Cl)c2cccnc12)C(=O)OCC [S5]
- fold induction [1, 10]: 1
- fold induction [2, 10]: 1
- fold induction [3, 10]: 1
- fold induction [4, 10]: 1
- fold induction [5, 10]: 1
- fold induction [6, 10]: 3.12

Compound: COC(=O)C1=NN(c2ccc(Cl)cc2Cl)C(C)(C(=O)OC)C1 (centres unmarked) [S1, Mefenpyr-dimethyl]
- fold induction [1, 10]: 1
- fold induction [2, 10]: 1
- fold induction [3, 10]: 1
- fold induction [4, 10]: 1
- fold induction [5, 10]: 1
- fold induction [6, 10]: 6.5

Compound: O=C(O)C1=NN(c2ccc(Cl)cc2Cl)C(c2ccc(F)cc2)C1 (centres unmarked) [S2]
- fold induction [1, 10]: 1
- fold induction [2, 10]: 1
- fold induction [3, 10]: 1
- fold induction [4, 10]: 1
- fold induction [5, 10]: 1
- fold induction [6, 10]: 1

Compound: CCOC(=O)C1=NOC(c2ccccc2)(c2ccccc2)C1 [S3, Isoxadifen-ethyl]
- fold induction at 150 g/ha [1]: 8.51
- fold induction at 150 g/ha [2]: 2.91
- fold induction at 150 g/ha [3]: 2.25
- fold induction at 150 g/ha [4]: 2.14
- fold induction at 150 g/ha [5]: 4.53
- fold induction at 150 g/ha [6]: 2.19
- Oxophytodienoate (OPDA) concentration ([7]; 30 g a.i/ha, 0 hours): 2500 pmol/g leaf tissue
- Oxophytodienoate (OPDA) concentration ([7]; 30 g a.i/ha, 1 hour): 6500 pmol/g leaf tissue
- Oxophytodienoate (OPDA) concentration ([7]; 30 g a.i/ha, 2 hours): 3750 pmol/g leaf tissue
- Oxophytodienoate (OPDA) concentration ([7]; 30 g a.i/ha, 4 hours): 7000 pmol/g leaf tissue
- Oxophytodienoate (OPDA) concentration ([7]; 30 g a.i/ha, 6 hours): 9000 pmol/g leaf tissue
- Oxophytodienoate (OPDA) concentration ([7]; 150 g a.i./ha, 0 hours): 2600 pmol/g leaf tissue
- Oxophytodienoate (OPDA) concentration ([7]; 150 g a.i./ha, 1 hour): 2800 pmol/g leaf tissue
- Oxophytodienoate (OPDA) concentration ([7]; 150 g a.i./ha, 2 hours): 1800 pmol/g leaf tissue
- Oxophytodienoate (OPDA) concentration ([7]; 150 g a.i./ha, 4 hours): 2200 pmol/g leaf tissue
- Oxophytodienoate (OPDA) concentration ([7]; 150 g a.i./ha, 6 hours): 5100 pmol/g leaf tissue
- Oxophytodienoate (OPDA) concentration ([7]; 150 g a.i./ha, 12 hours): 2400 pmol/g leaf tissue
- Oxophytodienoate (OPDA) concentration ([7]; 150 g a.i./ha, 24 hours): 5100 pmol/g leaf tissue
- Oxophytodienoate (OPDA) concentration ([7]; 150 g a.i./ha, 48 hours): 1900 pmol/g leaf tissue
- Increase in OPDA concentration relative to blank formulation samples ([7]; maximum over rates and times): ≤ 5 times
- Oxophytodienoate (OPDA) concentrations, range over the experiment ([7]; summary of Tables 3a, 3b, all rates and times): 1800-9000 pmol/g leaf tissue
- Jasmonate (JA) concentration ([8]; 30 g a.i/ha): 140 pmol/g leaf tissue
- Jasmonate (JA) concentration ([8]; 150 g a.i./ha): 140 pmol/g leaf tissue

Compound: NC(=O)c1ccc(C(F)(F)F)nc1O [S6]
- fold induction [1, 10]: 1
- fold induction [2, 10]: 1
- fold induction [3, 10]: 1
- fold induction [4, 10]: 1
- fold induction [5, 10]: 1
- fold induction [6, 10]: 2.27

Compound: O=C(O)c1cc(Cl)nc(Cl)c1 [S9]
- fold induction at 150 g/ha [1]: 1
- fold induction at 150 g/ha [2]: 1
- fold induction at 150 g/ha [3]: 1
- fold induction at 150 g/ha [4]: 12.6
- fold induction at 150 g/ha [5]: 4.59
- fold induction at 150 g/ha [6]: 2.14

Compound: CCCCCC(C)OC(=O)COc1ccc(Cl)c2cccnc12 (centres unmarked) [S4, Cloquintocet-mexyl]
- fold induction [1, 10]: 1
- fold induction [2, 10]: 1
- fold induction [3, 10]: 1
- fold induction [4, 10]: 1
- fold induction [5, 10]: 1
- fold induction [6, 10]: 1
